Experimental data taken from patent US20080207522A1, “Antimicrobial Peptides” (priority 2004, published 2008).

Legend:
[1] = tested on: Pseudomonas aeruginosa strain H1001; experiment: Assay for the cleaved (free, soluble) peptides from cellulose support, luminescence killing assay; type: cell-based; design: key: 1: Peptides showing stronger killing than Bac2A at a 4 to 8-fold higher dilution; Peptides showing stronger killing compared to that of Bac2A at a 4-fold higher dilution; 3: Peptides similar to Bac2A; 4: Peptides similar to Bac2A at the highest concentration but demonstrating weaker killing at a 2-fold dilution; 5: Peptides giving very weak or no killing at a 2-fold dilution; 6: Peptides with weak killing activity at the highest concentration; details: free (cleaved) peptides, killing relative to Bac2A
Procedure: Assay for the cleaved peptides from cellulose support. The peptides were cleaved from the dried membrane in an ammonia atmosphere overnight, resulting in free peptides with an amidated C-terminus. The free peptides contained two β-alanines at the C-terminus, in addition to being amidated due to the linker between the cellulose membrane and the peptide sequence. The peptide spots were punched out and transferred in a 96-well microtiter plate. Serial dilutions were carried out from the membrane spots. Four rows were filled with four controls including two with Bac2A and two with of an unrelated peptide. The other eight rows were used for serial dilution steps of the peptide variants. An overnight culture of Pseudomonas aeruginosa strain H1001 was diluted 1:500 using either LB media or 100 mM Tris buffer pH 7.3, 20 mM glucose and was added to the wells (100 μl/well) containing the peptide spots. In all other wells 50 μl were added. The microtiter plate was incubated for 30 min at 37° C. to release the peptides from the membrane. Subsequently, a dilution series were performed and the plate was incubated at 37° C. The luminescence produced by the ATP dependent luciferase system were detected in a time dependent manner using a Tecan Spectra Fluor plus.
(§1) Strains. For the killing assay a mini-Tn5-lux mutant in Pseudomonas aeruginosa H103 was used. The strain is called H1001 and contains a fliC::luxCDABE transcriptional fusion resulting in constitutive expression of luciferase. The bacterial strains used for the antimicrobial activity assays included Escherichia coli UB1005 (F-, nalA37, metB1), a wild-type Salmonella enterica ssp. Typhimurium (S. Typhimurium), wild-type Pseudomonas aeruginosa PAO1 strain H103, Enterococcus faecalis ATCC29212, Staphylococcus aureus ATCC25923, and a clinical isolate of Staphylococcus epidermidis obtained from Dr. D. Speert (Department of Medicine, University of British Columbia). Antifungal activity was tested using a lab isolate of Candida albicans obtained from Dr. B. Dill (Department of Microbiology and Immunology, University of British Columbia).
Peptide synthesis on cellulose is a very effective and inexpensive way to investigate many different peptide variants for one particular activity. However, one of the problems of this technique is the low peptide density synthesized on the membrane, about 280 nmol per cm2. An average peptide spot used for the experiments presented is about 0.3 cm2. Therefore, an assay had to be developed that was sensitive enough to show activity with this amount of peptides. P. aeruginosa H1001 has a reporter system (e.g., a luciferase gene cassette) incorporated into the bacterial chromosome in the fliC gene (involved in flagellar biosynthesis) that is constitutively expressed. It will thus produce light if ATP is present. When this strain is killed, e.g. by peptides, the amount of light produced will decrease due to a decrease in ATP levels in the killed cells. This action can thus be monitored by detecting luminescence in a microtiter plate luminescence reader over time. The volume and amount of cells per well were optimized for this assay. After screening, the killing action was monitored with small amounts of the parent peptide Bac2A (2 μg/ml of free peptide).
Forty-nine scrambled peptides (Bac002-Bac050) were synthesized on the cellulose support and then cleaved by ammonia gas resulting in free peptides with an amidated C-terminus including the linker. The peptide spots were transferred to a 96-well microtiter plate and incubated for 30 min to dissociate the peptides from the cellulose. After serial dilution and addition of strain H1001, luminescence was recorded in a time dependent manner (FIG. 1). All 50 scrambled peptides were compared to Bac2A ([…]-NH2; SEQ ID NO: 1) by this assay (see Table 2). […] Further since all scrambled peptides had some activity, a sequence-specific interaction of the peptides with a receptor or target could be excluded.

[2] = tested on: Pseudomonas aeruginosa strain H1001 fliC::luxCDABE; experiment: Luminescence-based assay for the non-cleaved (bound) peptides on cellulose membranes; type: cell-based; details: for Luminescence at the given time in minutes: 0 / Luminescence at the given time in minutes: 20 / Luminescence at the given time in minutes: 40 / Luminescence at the given time in minutes: 60 / Luminescence at the given time in minutes: 80 / Luminescence at the given time in minutes: 100 / Luminescence at the given time in minutes: 120 / Luminescence at the given time in minutes: 180 / Luminescence at the given time in minutes: 240: cellulose-bound peptide; for Luminescence at the given time in minutes: 0: 0 min; for Luminescence at the given time in minutes: 20: 20 min; for Luminescence at the given time in minutes: 40: 40 min; for Luminescence at the given time in minutes: 60: 60 min; for Luminescence at the given time in minutes: 80: 80 min; for Luminescence at the given time in minutes: 100: 100 min; for Luminescence at the given time in minutes: 120: 120 min; for Luminescence at the given time in minutes: 180: 180 min; for Luminescence at the given time in minutes: 240: 240 min; for Activity Class bound: uncleaved cellulose-bound peptides
Procedure: Luminescence-based MIC assay for the non-cleaved peptides on cellulose membranes. The peptide spots were punched out and transferred to a 96 well microtiter plate with a clear polystyrene bottom and opaque white polypropylene sides (PerkinElmer, Boston, USA). The spots were washed two times with 100% ethanol for 5 min and afterwards equilibrated five times with 100 mM Tris buffer pH 7.3 for 5 min. An overnight culture of Pseudomonas aeruginosa strain H1001 fliC::luxCDABE was diluted 1:50 in new MH medium and incubated at 37° C. to an OD600 of 0.35. This bacterial culture was diluted 1:25 into 10 mM Tris-HCl buffer, pH 7.3 containing 20 mM glucose. Fifty μl of this culture was added to all wells of the microtiter plate and incubated at 37° C. The luminescence of the strain produced by the ATP-dependent luciferase system was detected in a time dependent manner using a Tecan Spectra Fluor plus (Tecan, Austria). At the end of the experiment, the membranes were cleaned by washing the spots two times with 100% ethanol for five minutes. After removing the ethanol the membrane was air-dried.
as §1
The same set of peptides, as well as the reversed sequence of Bac2A-R ([…]; SEQ ID NO: 2166), were synthesized on cellulose and left uncleaved. The production of light was initially compared in wells containing spots of Bac2A, Bac2A-R (with the reversed sequence of Bac2A), the unrelated negative-control peptide, or, as additional controls, only cellulose, or only bacteria (FIG. 2).
As a control, the negative control (unrelated) peptide Bac429 and parent peptide Bac2A (=Bac001) were used in several different wells of the microtiter plate. Luminescence (relative light units; RLU) was measured at 14 different time points, 9 of which are shown. To permit comparison of the data with the free peptide data set, the result for each peptide was classified into six different groups, like the data set with the free peptides (Table 2). […] For the soluble peptides the following classes were established: […]

Sequence	Activity Class Soluble [1]	Luminescence at the given time in minutes: 0 [2]	Luminescence at the given time in minutes: 20 [2]	Luminescence at the given time in minutes: 40 [2]	Luminescence at the given time in minutes: 60 [2]	Luminescence at the given time in minutes: 80 [2]	Luminescence at the given time in minutes: 100 [2]	Luminescence at the given time in minutes: 120 [2]	Luminescence at the given time in minutes: 180 [2]	Luminescence at the given time in minutes: 240 [2]	Activity Class bound [2]
ARRLIVRVRVIA [Bac003]	5	4138 RLU	5992 RLU	3320 RLU	906 RLU	192 RLU	74 RLU	83 RLU	76 RLU	36 RLU	3 (Peptides similar to Bac2A resulting in lux values of less than 500 after 240 min.)
AVRAIRVLRVIR [Bac015]	3	4309 RLU	7112 RLU	5227 RLU	3783 RLU	2656 RLU	1785 RLU	1398 RLU	1244 RLU	1320 RLU	4 (Peptides reducing luminescence (lux) values to between 500 to 1499 after 240 min.)
AVRVRRRAILVI [Bac011]	4	4516 RLU	7019 RLU	5176 RLU	3694 RLU	2076 RLU	1222 RLU	816 RLU	494 RLU	447 RLU	3 (Peptides similar to Bac2A resulting in lux values of less than 500 after 240 min.)
IAARRLIRVVRV [Bac012]	3	4045 RLU	7171 RLU	5701 RLU	5037 RLU	4631 RLU	4418 RLU	4182 RLU	4344 RLU	5087 RLU	6 (Peptides having residual luminescence (lux) values greater than 3000 after 240 min.)
IARRIVAVRLRV [Bac026]	3	4873 RLU	6389 RLU	4439 RLU	2341 RLU	1080 RLU	518 RLU	302 RLU	201 RLU	208 RLU	3 (Peptides similar to Bac2A resulting in lux values of less than 500 after 240 min.)
IIRAALRRVRVV [Bac009]	5	3935 RLU	6553 RLU	4936 RLU	4512 RLU	3977 RLU	3488 RLU	3216 RLU	3270 RLU	3104 RLU	6 (Peptides having residual luminescence (lux) values greater than 3000 after 240 min.)
ILVARVIRRRVA [Bac019]	5	5239 RLU	7569 RLU	5731 RLU	4741 RLU	3822 RLU	3000 RLU	2373 RLU	1908 RLU	1570 RLU	5 (Peptides reducing luminescence (lux) values to between 1500 to 3000 after 240 min.)
ILVIVRRRARAV [Bac042]	3	5171 RLU	6703 RLU	4453 RLU	2128 RLU	746 RLU	244 RLU	86 RLU	49 RLU	52 RLU	3 (Peptides similar to Bac2A resulting in lux values of less than 500 after 240 min.)
IRARIAVRRVVL [Bac004]	3	3773 RLU	6547 RLU	5008 RLU	4405 RLU	3805 RLU	3125 RLU	2753 RLU	2459 RLU	2607 RLU	5 (Peptides reducing luminescence (lux) values to between 1500 to 3000 after 240 min.)
IRVRRLVAAVIR [Bac033]	5	4795 RLU	6539 RLU	4785 RLU	4155 RLU	3565 RLU	3095 RLU	2639 RLU	2613 RLU	2962 RLU	5 (Peptides reducing luminescence (lux) values to between 1500 to 3000 after 240 min.)
